System: lung gene expression
Assay: RNA sequencing of lung tissue (BLM/EL244 vs BLM)
Assay type: in vivo, mouse
Procedure: RNA quality was assessed using an Agilent TapeStation 4150 with the High Sensitivity […] ScreenTape (Agilent), according to the manufacturer’s protocols. For library preparation, the QuantSeq 3’mRNA-Seq Library Prep Kit (Lexogen) was used according to manufacturer’s instructions. Briefly, 500 ng of RNA from each sample was used for first-strand synthesis, followed by RNA template removal, and second-strand synthesis initiated by random primers. In-line barcodes were introduced at this step, and this was followed by magnetic bead-based purification. The resulting libraries were amplified for 15 cycles and re-purified, with quantity and quality assessed on a Qubit 4 Fluorometer with the Invitrogen Qubit dsDNA HS Assay and an Agilent Tapestation 4150 with the High Sensitivity D1000 assay kit, respectively. The quantified libraries were pooled equimolarly; 50ng of total library mix was used for Adapter Conversion PCR Amplification using the Universal Library Conversion Kit (App-A), Version: V1.0 (MGI Tech Co., Ltd.), according to the manufacturer’s instructions.
The quantity and quality of the purified adapter conversion PCR (AC-PCR) product were evaluated on a Qubit 4 Fluorometer with the Invitrogen Qubit dsDNA HS Assay and on an Agilent Tapestation 4150 with the High Sensitivity D1000 assay kit, respectively. This was followed by DNA denaturation, Single-Strand Circularisation, Enzymatic Digestion, Enzymatic Digestion Product Cleanup and Quality Control steps on 1 pmol of AC-PCR product, according to the Universal Library Conversion Kit (App-A) User Manual (Version: A3).
Finally, 60 fmol of ssCirDNA were used for DNB preparation and sequencing on a DNBSEQ-G400 platform at the BSRC Alexander Fleming Genomics Facility, using a G400 App-A FCS SE100 High-throughput Sequencing Set (MGI Tech Co., Ltd.), according to the manufacturer’s instructions.
Alignment of the FASTQ files was performed against the mouse genome build mm10 using a custom Bash script.[143] Read counting on the 3′ UTRs and differential expression analysis were conducted using the metaseqR2 bioconductor package.[144] Genes corresponding to the following biotypes were excluded: polymorphic_pseudogene, processed_transcript, pseudogene, IG_V_pseudogene, misc_RNA, IG_C_gene, IG_J_gene, IG_D_gene, IG_LV_gene, TR_V_gene, TR_V_pseudogene, TEC, and processed_pseudogene. Gene counts were normalized with DESEQ[145] through metaseqR2. Genes with more than 10 counts in at least 50% of the samples were kept for further processing. For differential expression analysis, the PANDORA algorithm[146] was used to estimate a meta p-value integrating the results from the DESEQ, DESEQ2,[147] edgeR,[148] limma,[149] NBPSeq,[150] and NOISeq[151] algorithms. All additional parameters were set to default values.
Pathway enrichment analysis was performed for the Gene Ontology Biological process (BP) and Molecular Function (MF) terms through GeneCodis 4.[152] The volcano plots, scatterplots, Venn diagrams, and dot plots were generated using the ggplot2 Bioconductor package.

O=C1NC(=O)C(Cc2ccc(OCCC3CCN(C(=O)OCc4cc(Cl)cc(Cl)c4)CC3)cc2)S1 (stereo not drawn) [EL244, 3,5-dichlorobenzyl 4-(2-(4-((2,4-dioxothiazolidin-5-yl)methyl)phenoxy)ethyl)piperidine-1-carboxylate]
Rbm24 nFC (BLM/EL244 vs BLM, lung tissue): 2.29 | Rdh12 log2 nFC (BLM/EL244 vs BLM, lung tissue): 1.74 | Rdh12 nFC (BLM/EL244 vs BLM, lung tissue): 3.34 | Retnlg log2 nFC (BLM/EL244 vs BLM, lung tissue): 1.46 | Retnlg nFC (BLM/EL244 vs BLM, lung tissue): 2.74 | Ryr2 log2 nFC (BLM/EL244 vs BLM, lung tissue): 2.14 | Ryr2 nFC (BLM/EL244 vs BLM, lung tissue): 4.39 | S1pr5 log2 nFC (BLM/EL244 vs BLM, lung tissue): 1.64 | S1pr5 nFC (BLM/EL244 vs BLM, lung tissue): 3.12 | S100a8 log2 nFC (BLM/EL244 vs BLM, lung tissue): 1.52 | S100a8 nFC (BLM/EL244 vs BLM, lung tissue): 2.86 | S100a9 log2 nFC (BLM/EL244 vs BLM, lung tissue): 2.11 | S100a9 nFC (BLM/EL244 vs BLM, lung tissue): 4.32 | Scel log2 nFC (BLM/EL244 vs BLM, lung tissue): 1.31 | Scel nFC (BLM/EL244 vs BLM, lung tissue): 2.47 | Shank3 log2 nFC (BLM/EL244 vs BLM, lung tissue): 1.61 | Shank3 nFC (BLM/EL244 vs BLM, lung tissue): 3.05 | Slc38a4 log2 nFC (BLM/EL244 vs BLM, lung tissue): 1.12 | Slc38a4 nFC (BLM/EL244 vs BLM, lung tissue): 2.17 | Sln log2 nFC (BLM/EL244 vs BLM, lung tissue): 2.01 | Sln nFC (BLM/EL244 vs BLM, lung tissue): 4.02 | Smad6 log2 nFC (BLM/EL244 vs BLM, lung tissue): 1.18 | Smad6 nFC (BLM/EL244 vs BLM, lung tissue): 2.26 | Smpx log2 nFC (BLM/EL244 vs BLM, lung tissue): 2.34 | Smpx nFC (BLM/EL244 vs BLM, lung tissue): 5.08 | Smyd1 log2 nFC (BLM/EL244 vs BLM, lung tissue): 1.73 | Smyd1 nFC (BLM/EL244 vs BLM, lung tissue): 3.32 | Snhg11 log2 nFC (BLM/EL244 vs BLM, lung tissue): 1.40 | Snhg11 nFC (BLM/EL244 vs BLM, lung tissue): 2.64 | Snx21 log2 nFC (BLM/EL244 vs BLM, lung tissue): 1.15 | Snx21 nFC (BLM/EL244 vs BLM, lung tissue): 2.21 | Sox18 log2 nFC (BLM/EL244 vs BLM, lung tissue): 1.91 | Sox18 nFC (BLM/EL244 vs BLM, lung tissue): 3.76 | Spink5 log2 nFC (BLM/EL244 vs BLM, lung tissue): 1.36 | Spink5 nFC (BLM/EL244 vs BLM, lung tissue): 2.57 | Tbata log2 nFC (BLM/EL244 vs BLM, lung tissue): 1.72 | Tbata nFC (BLM/EL244 vs BLM, lung tissue): 3.30 | Tcap log2 nFC (BLM/EL244 vs BLM, lung tissue): 1.73 | Tcap nFC (BLM/EL244 vs BLM, lung tissue): 3.32 | Tex11 log2 nFC (BLM/EL244 vs BLM, lung tissue): 1.83 | Tex11 nFC (BLM/EL244 vs BLM, lung tissue): 3.55 | Tmem182 log2 nFC (BLM/EL244 vs BLM, lung tissue): 2.26 | Tmem182 nFC (BLM/EL244 vs BLM, lung tissue): 4.78 | Tmem132d log2 nFC (BLM/EL244 vs BLM, lung tissue): 2.38 | Tmem132d nFC (BLM/EL244 vs BLM, lung tissue): 5.19 | Tnnc1 log2 nFC (BLM/EL244 vs BLM, lung tissue): 2.18 | Tnnc1 nFC (BLM/EL244 vs BLM, lung tissue): 4.53 | Tnni3 log2 nFC (BLM/EL244 vs BLM, lung tissue): 2.31 | Tnni3 nFC (BLM/EL244 vs BLM, lung tissue): 4.95 | Tnnt2 log2 nFC (BLM/EL244 vs BLM, lung tissue): 1.77 | Tnnt2 nFC (BLM/EL244 vs BLM, lung tissue): 3.42 | Ttn log2 nFC (BLM/EL244 vs BLM, lung tissue): 2.53 | Ttn nFC (BLM/EL244 vs BLM, lung tissue): 5.78 | Upk3b log2 nFC (BLM/EL244 vs BLM, lung tissue): 1.53 | Upk3b nFC (BLM/EL244 vs BLM, lung tissue): 2.88 | Xndc1 log2 nFC (BLM/EL244 vs BLM, lung tissue): 1.14 | Xndc1 nFC (BLM/EL244 vs BLM, lung tissue): 2.21 | Zbtb16 log2 nFC (BLM/EL244 vs BLM, lung tissue): 1.33 | Zbtb16 nFC (BLM/EL244 vs BLM, lung tissue): 2.51 | Zmynd10 log2 nFC (BLM/EL244 vs BLM, lung tissue): 1.28 | Zmynd10 nFC (BLM/EL244 vs BLM, lung tissue): 2.44 | 1810010H24Rik log2 nFC BLM/EL244 vs BLM (DEG 1810010H24Rik, nFC: normalised fold change): 0.90 | 1810020O05Rik log2 nFC BLM/EL244 vs BLM (DEG 1810020O05Rik, nFC: normalised fold change): 1.58 | 2410004I01Rik log2 nFC BLM/EL244 vs BLM (DEG 2410004I01Rik, nFC: normalised fold change): 1.80 | 9330159F19Rik log2 nFC BLM/EL244 vs BLM (DEG 9330159F19Rik, nFC: normalised fold change): 1.78 | 9530026P05Rik log2 nFC BLM/EL244 vs BLM (DEG 9530026P05Rik, nFC: normalised fold change): 3.17 | A3galt2 log2 nFC BLM/EL244 vs BLM (DEG A3galt2, nFC: normalised fold change): 2.32 | log2 nFC BLM/EL244 vs BLM (DEG AA467197): -1.39 | Abca8a log2 nFC BLM/EL244 vs BLM (DEG Abca8a, nFC: normalised fold change): 0.75 | Abi3bp log2 nFC BLM/EL244 vs BLM (DEG Abi3bp, nFC: normalised fold change): 1.00 | Acaa1b log2 nFC BLM/EL244 vs BLM (DEG Acaa1b, nFC: normalised fold change): 1.43 | Acbd4 log2 nFC BLM/EL244 vs BLM (DEG Acbd4, nFC: normalised fold change): 0.86 | Acot1 log2 nFC BLM/EL244 vs BLM (DEG Acot1, nFC: normalised fold change): 1.08 | Acoxl log2 nFC BLM/EL244 vs BLM (DEG Acoxl, nFC: normalised fold change): 1.23 | Actc1 log2 nFC BLM/EL244 vs BLM (DEG Actc1, nFC: normalised fold change): 1.28 | Adam3 log2 nFC BLM/EL244 vs BLM (DEG Adam3, nFC: normalised fold change): 1.67 | log2 nFC BLM/EL244 vs BLM (DEG Adam12): -1.57 | log2 nFC BLM/EL244 vs BLM (DEG Adamts12): -1.47 | Adh7 log2 nFC BLM/EL244 vs BLM (DEG Adh7, nFC: normalised fold change): 1.02 | Alas2 log2 nFC BLM/EL244 vs BLM (DEG Alas2, nFC: normalised fold change): 1.58 | Aldh1a1 log2 nFC BLM/EL244 vs BLM (DEG Aldh1a1, nFC: normalised fold change): 0.78 | log2 nFC BLM/EL244 vs BLM (DEG Ankrd37): -1.50 | Ankrd44 log2 nFC BLM/EL244 vs BLM (DEG Ankrd44, nFC: normalised fold change): 0.84 | Ankrd63 log2 nFC BLM/EL244 vs BLM (DEG Ankrd63, nFC: normalised fold change): 1.34 | Aox3 log2 nFC BLM/EL244 vs BLM (DEG Aox3, nFC: normalised fold change): 1.07 | Aqp9 log2 nFC BLM/EL244 vs BLM (DEG Aqp9, nFC: normalised fold change): 1.66 | Ar log2 nFC BLM/EL244 vs BLM (DEG Ar, nFC: normalised fold change): 1.04 | Arhgap28 log2 nFC BLM/EL244 vs BLM (DEG Arhgap28, nFC: normalised fold change): 1.14 | Arhgef38 log2 nFC BLM/EL244 vs BLM (DEG Arhgef38, nFC: normalised fold change): 0.87 | Arl4a log2 nFC BLM/EL244 vs BLM (DEG Arl4a, nFC: normalised fold change): 0.70 | log2 nFC BLM/EL244 vs BLM (DEG Armcx4): -1.32 | Arrdc2 log2 nFC BLM/EL244 vs BLM (DEG Arrdc2, nFC: normalised fold change): 1.24 | Asgr1 log2 nFC BLM/EL244 vs BLM (DEG Asgr1, nFC: normalised fold change): 1.80 | Atp2a3 log2 nFC BLM/EL244 vs BLM (DEG Atp2a3, nFC: normalised fold change): 0.83 | Atp6v1c2 log2 nFC BLM/EL244 vs BLM (DEG Atp6v1c2, nFC: normalised fold change): 1.03 | Baiap3 log2 nFC BLM/EL244 vs BLM (DEG Baiap3, nFC: normalised fold change): 1.24 | Bbof1 log2 nFC BLM/EL244 vs BLM (DEG Bbof1, nFC: normalised fold change): 1.11 | log2 nFC BLM/EL244 vs BLM (DEG Bcl2a1d): -1.29 | Bex2 log2 nFC BLM/EL244 vs BLM (DEG Bex2, nFC: normalised fold change): 1.46 | Bmp6 log2 nFC BLM/EL244 vs BLM (DEG Bmp6, nFC: normalised fold change): 1.07 | Bpifa1 log2 nFC BLM/EL244 vs BLM (DEG Bpifa1, nFC: normalised fold change): 1.12 | log2 nFC BLM/EL244 vs BLM (DEG C1qa): -1.44 | log2 nFC BLM/EL244 vs BLM (DEG C1qb): -1.51 | log2 nFC BLM/EL244 vs BLM (DEG C1qc): -1.56 | log2 nFC BLM/EL244 vs BLM (DEG C1qtnf6): -1.38 | log2 nFC BLM/EL244 vs BLM (DEG C3ar1): -1.58 | C130080G10Rik log2 nFC BLM/EL244 vs BLM (DEG C130080G10Rik, nFC: normalised fold change): 3.58 | Car3 log2 nFC BLM/EL244 vs BLM (DEG Car3, nFC: normalised fold change): 1.57 | Casq2 log2 nFC BLM/EL244 vs BLM (DEG Casq2, nFC: normalised fold change): 2.36 | Cbr2 log2 nFC BLM/EL244 vs BLM (DEG Cbr2, nFC: normalised fold change): 0.91 | Ccdc153 log2 nFC BLM/EL244 vs BLM (DEG Ccdc153, nFC: normalised fold change): 0.79 | Ccdc171 log2 nFC BLM/EL244 vs BLM (DEG Ccdc171, nFC: normalised fold change): 1.04 | log2 nFC BLM/EL244 vs BLM (DEG Ccl2): -1.43 | log2 nFC BLM/EL244 vs BLM (DEG Ccl8): -1.54

From paper PMC13198257, “An aerosolized dual-action autotaxin inhibitor-PPARγ agonist for the treatment of pulmonary fibrosis” (Cell Reports Medicine, 2026)
